In patent US20250313555A1, “2-SUBSTITUTED THIAZOLE AND BENZOTHIAZOLE COMPOSITIONS AND METHODS AS DUX4 INHIBITORS” (ALTAY THERAPEUTICS, INC., priority 2022, published 2025):

Columns and labels:
Type in all cases: cell-based
[1] = tested on: HEK; assay: Cell cytotoxicity 50 assay (CC50), HEK cells
Outline: (§1)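 CC50 was fitted from total luminescence, measured 5 min after adding CellTiter-Glo reagent to HEK cells. The cells had been exposed for 72 h at 37 °C to medium serial dilutions prepared from a 10 mM drug solution.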

[2] = target: T1, DUX4 (Homo sapiens, UniProt Q9UBX2); assay: DUX4 EC50 luciferase reporter protocol in transfected HEK293 cells; conditions: 6 hr
T1 construct: expressed in transfected cells; host or cells: HEK293

[3] = tested on: MB200 cells; assay: Cell cytotoxicity 50 assay (CC50), MB200 cells, cell titer glo; conditions: 72 h
Outline: (§2)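 Luminescence from CellTiter-Glo after 72 h of compound exposure at 37 °C gave the CC50 for MB200 cells. These were plated at 10 k cells/well in triplicate in supplemented F10 medium and treated with a serial dilution series prepared from a 10 mM stock.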

[4] = Cell cytotoxicity 50 assay (CC50), HEK cells; conditions: human
Outline: as §1

[5] = Cell cytotoxicity 50 assay (CC50), MB200 cells, cell titer glo; conditions: human
Outline: as §2

T1 sequence (Q9UBX2 whole entry): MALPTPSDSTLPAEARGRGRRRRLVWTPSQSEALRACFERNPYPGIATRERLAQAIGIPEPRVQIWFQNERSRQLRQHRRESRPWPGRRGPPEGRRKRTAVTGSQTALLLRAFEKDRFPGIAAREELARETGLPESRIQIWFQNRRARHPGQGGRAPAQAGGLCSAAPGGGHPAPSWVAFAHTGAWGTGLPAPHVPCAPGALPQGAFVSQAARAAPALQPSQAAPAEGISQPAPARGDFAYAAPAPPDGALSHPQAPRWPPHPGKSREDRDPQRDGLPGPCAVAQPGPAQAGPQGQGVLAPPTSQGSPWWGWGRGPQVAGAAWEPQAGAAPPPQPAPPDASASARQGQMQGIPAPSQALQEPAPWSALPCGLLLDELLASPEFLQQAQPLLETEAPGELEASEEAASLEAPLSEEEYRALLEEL

O=C(CCCN1C(=O)CCC1=O)Nc1nc2ccccc2s1 [Compound 108]
> 10 µM: CC50 [1] | EC50 [2] | CC50 [3]

O=C(CCCN1C(=O)CCC1=O)N[C@H]1CC[C@H](c2nc3ccccc3s2)C1 [Compound 161]
> 10 µM: CC50 [1] | EC50 [2] | CC50 [3]

O=C(NCCCN1C(=O)CCC1=O)c1ccc(-c2nc3ccccc3s2)cc1 [Compound 7]
> 10 µM: CC50 at 72 h [4] | EC50 [2] | CC50 at 72 h [5]

CC(=O)NCCCNC(=O)C12CCC(c3nc4ccccc4s3)(CC1)CC2 [Compound 173]
> 10 µM: CC50 at 72 h [4] | EC50 [2] | CC50 at 72 h [5]

CC(=O)NCCCC(=O)NCCCc1nc2ccccc2s1 [Compound 106]
> 10 µM: CC50 at 72 h [4] | EC50 [2] | CC50 at 72 h [5]

O=C(CCN1CCCC1=O)Nc1ccc(Cc2nc3ccccc3s2)cc1 [Compound 8]
> 10 µM: CC50 at 72 h [4] | EC50 [2] | CC50 at 72 h [5]

CC(=O)NCCCC(=O)Nc1cc(C)cc(-c2nc3ccccc3s2)c1 [Compound 72]
> 10 µM: CC50 at 72 h [4] | EC50 [2] | CC50 at 72 h [5]

O=C(NCCc1cncnc1)c1ccc(-c2nc3ccccc3s2)cc1 [Compound 11]
> 10 µM: CC50 at 72 h [4] | EC50 [2] | CC50 at 72 h [5]

CC(=O)NCCCC(=O)N[C@@H]1CC[C@H](c2nc3ccccc3s2)C1 [Compound 114]
> 10 µM: CC50 at 72 h [4] | EC50 [2] | CC50 at 72 h [5]
